Data reported in patent US6737383B1, “Herbicidal oxadiazolidines” (priority 1999, dated 2004).

Assays:
[1] = tested on: duck salad; assay: Test B flood test duck salad; assay type: in vivo, Heteranthera limosa
How it was run: (§1)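 Flood test on plants grown to the 2-leaf stage; treated plants kept in greenhouse twelve to sixteen days, then visually rated against controls on a 0 (no effect) to 10 (complete control) scale.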

[2] = tested on: morningglory; assay: Test B pre/postemergence morningglory; assay type: in vivo, Ipomoea hederacea
How it was run: (§2)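 Response is a visual 0-to-10 score relative to untreated plants, where 0 means no effect and 10 means complete control, taken twelve to sixteen days after application. Treatments went onto soil at planting and onto foliage of 1- to 4-leaf plants, using a surfactant-containing non-phytotoxic solvent.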

[3] = tested on: giant foxtail; assay: Test B pre/postemergence giant foxtail; assay type: in vivo, Setaria faberii
How it was run: as §2

[4] = tested on: rice; assay: Test B flood test rice; assay type: in vivo, Oryza sativa
How it was run: as §1

[5] = Rate 62 g/ha, headed Pre-emergence (flood test species), scale 0 to 10 (0 no effect, 10 complete control)
[6] = Rate 125 g/ha, Pre-emergence, flood test species, scale 0 to 10 where 0 is no effect and 10 is complete control
[7] = Rate 250 g/ha, Pre-emergence, flood-test species, scale 0 to 10, 0 is no effect, 10 is complete control
[8] = Rate 500 g/ha, Pre-emergence, flood test species, scale 0 to 10 (0 no effect, 10 complete control)
[9] = Preemergence, Rate 62 g/ha, scale of 0 to 10 where 0 is no effect and 10 is complete control
[10] = Preemergence, Rate 250 g/ha, scale of 0 to 10 where 0 is no effect and 10 is complete control
[11] = Preemergence, Rate 500 g/ha, scale of 0 to 10 where 0 is no effect and 10 is complete control
[12] = Rate 62 g/ha, Postemergence, scale of 0 to 10 where 0 is no effect and 10 is complete control
[13] = Rate 125 g/ha, Postemergence, scale 0 to 10
[14] = Rate 125 g/ha, Preemergence, scale of 0 to 10 where 0 is no effect and 10 is complete control
[15] = Rate 500 g/ha, Postemergence, scale 0 to 10, 0 no effect, 10 complete control
[16] = Postemergence, Rate 125 g/ha, scale 0 to 10, 0 is no effect, 10 is complete control
[17] = Rate 62 g/ha, Postemergence, scale 0 to 10 (0 no effect, 10 complete control)
[18] = Rate 125 g/ha, Postemergence, scale of 0 to 10 where 0 is no effect and 10 is complete control
[19] = Rate 250 g/ha, Postemergence, scale of 0 to 10 where 0 is no effect and 10 is complete control
[20] = Rate 62 g/ha, flood test species, Pre-emergence, visual evaluation after twelve to sixteen days
[21] = Rate 125 g/ha, under heading Pre-emergence, flood test species, visual evaluation after twelve to sixteen days
[22] = Rate 250 g/ha, Pre-emergence (flood test species), scale 0 to 10, 0 is no effect, 10 is complete control
[23] = Rate 500 g/ha, Pre-emergence section of Table B, 0 to 10 scale (0 no effect, 10 complete control)
[24] = Postemergence, Rate 62 g/ha, scale 0 to 10, 0 is no effect, 10 is complete control
[25] = Postemergence, Rate 125 g/ha, scale of 0 to 10 where 0 is no effect and 10 is complete control
[26] = Postemergence, Rate 250 g/ha, scale of 0 to 10, 0 is no effect, 10 is complete control
[27] = Postemergence, Rate 500 g/ha, scale of 0 to 10 where 0 is no effect and 10 is complete control
[28] = Preemergence, Rate 62 g/ha, scale 0 to 10 (0 no effect, 10 complete control)
[29] = Preemergence, Rate 125 g/ha, scale of 0 to 10 where 0 is no effect and 10 is complete control
[30] = Postemergence block (flood test species), Rate 250 g/ha, scale 0 to 10
[31] = Postemergence section (flood test species), Rate 500 g/ha, scale of 0 to 10 where 0 is no effect and 10 is complete control
[32] = Rate 125 g/ha, Postemergence section (flood test species), scale 0 to 10, 0 is no effect, 10 is complete control
[33] = Postemergence, Rate 250 g/ha, scale 0 to 10
[34] = Preemergence, Rate 250 g/ha, scale 0 to 10, 0 is no effect, 10 is complete control
[35] = Preemergence, Rate 500 g/ha, scale 0 to 10, 0 is no effect, 10 is complete control
[36] = Rate 125 g/ha, Postemergence, scale 0 to 10, 0 is no effect, 10 is complete control
[37] = Rate 125 g/ha, Postemergence section (flood test species), scale 0 to 10, 0 no effect, 10 complete control
[38] = Rate 500 g/ha, Postemergence section of Table B, 0 to 10 scale (0 no effect, 10 complete control)
[39] = flood test, listed under Postemergence, Rate 250 g/ha, scale 0 to 10, 0 no effect, 10 complete control
[40] = Postemergence, Rate 250 g/ha, scale 0 to 10, 0 no effect, 10 complete control
[41] = Preemergence, Rate 62 g/ha, scale 0 to 10, 0 is no effect, 10 is complete control
[42] = Preemergence, Rate 125 g/ha, scale 0 to 10 (0 no effect, 10 complete control)
[43] = Preemergence, Rate 500 g/ha, scale 0 (no effect) to 10 (complete control)
[44] = Rate 125 g/ha, Postemergence, scale 0 to 10, 0 no effect, 10 complete control
[45] = Rate 500 g/ha, Postemergence, 0 to 10 scale (0 no effect, 10 complete control)

CC(C)N(C(=O)n1oc(=O)n(CC2(C)COC2)c1=O)c1ccc(F)cc1 [Compound 226]
5: Morningglory plant response rating [2, 12]
2: Giant foxtail plant response rating [3, 12]
7: Morningglory plant response rating [2, 10] | Morningglory plant response rating [2, 13] | Plant response rating (0 to 10; 0 is no effect, 10 is complete control), Morningglory ([2]; Rate 250 g/ha, Postemergence) | Morningglory plant response rating [2, 15] | Giant foxtail plant response rating [3, 13] | Plant response rating (0 to 10; 0 is no effect, 10 is complete control), Giant foxtail ([3]; Rate 250 g/ha, Postemergence) | Giant foxtail plant response rating [3, 15]
10: Giant foxtail plant response rating [3, 10] | Plant response rating, Giant foxtail [3, 11] | Giant foxtail plant response rating [3, 14]
0: Ducksalad plant response rating [1, 5] | Ducksalad plant response rating [1, 6] | Ducksalad plant response rating [1, 7] | Ducksalad plant response rating [1, 8] | Morningglory plant response rating [2, 9] | Morningglory plant response rating [2, 14] | Rice plant response rating [4, 5] | Rice plant response rating [4, 6] | Rice plant response rating [4, 7] | Rice plant response rating [4, 8]
8: Plant response rating, Morningglory [2, 11]
9: Giant foxtail plant response rating [3, 9]

Cc1c(-n2c(=O)on(C(=O)N(c3ccc(F)cc3)C(C)C)c2=O)ccc2ccccc12 [Compound 338]
2: Plant response rating, Morningglory [2, 15]
0: Ducksalad plant response rating [1, 5] | Ducksalad plant response rating [1, 6] | Ducksalad plant response rating [1, 7] | Ducksalad plant response rating [1, 8] | Plant response rating, Morningglory [2, 16] | Morningglory plant response rating [2, 9] | Morningglory plant response rating (0 to 10 scale) ([2]; Preemergence, Rate 125 g/ha) | Morningglory plant response rating [2, 10] | Morningglory plant response rating [2, 11] | Morningglory plant response rating [2, 17] | Plant response rating, Giant foxtail [3, 16] | Giant foxtail plant response rating [3, 9] | Giant foxtail plant response rating (0 to 10 scale) ([3]; Preemergence, Rate 125 g/ha) | Giant foxtail plant response rating [3, 10] | Giant foxtail plant response rating [3, 17] | Plant response rating, Giant foxtail [3, 15] | Rice plant response rating [4, 5] | Rice plant response rating [4, 6] | Rice plant response rating [4, 7] | Rice plant response rating [4, 8]
9: Giant foxtail plant response rating [3, 11]

CC(C)C(C)n1c(=O)on(C(=O)N(c2ccc(F)cc2)C(C)C)c1=O (stereo not shown) [Compound 316]
10: Giant foxtail plant response rating (0 to 10 scale) ([3]; Preemergence, Rate 125 g/ha) | Giant foxtail plant response rating [3, 10] | Giant foxtail plant response rating [3, 11]
3: Ducksalad plant response rating [1, 7] | Morningglory plant response rating [2, 17]
2: Plant response rating, Giant foxtail [3, 19]
5: Plant response rating, Morningglory [2, 19]
9: Giant foxtail plant response rating [3, 9]
4: Morningglory plant response rating [2, 18]
1: Rice plant response rating [4, 7]
0: Ducksalad plant response rating [1, 5] | Ducksalad plant response rating [1, 6] | Ducksalad plant response rating [1, 8] | Morningglory plant response rating [2, 9] | Morningglory plant response rating (0 to 10 scale) ([2]; Preemergence, Rate 125 g/ha) | Morningglory plant response rating [2, 10] | Morningglory plant response rating [2, 11] | Giant foxtail plant response rating [3, 17] | Giant foxtail plant response rating [3, 18] | Rice plant response rating [4, 5] | Rice plant response rating [4, 6] | Rice plant response rating [4, 8]

CCC(C)n1c(=O)on(C(=O)N(c2ccc(F)cc2)C(C)C)c1=O (stereo not shown) [Compound 613]
8: Morningglory plant response rating [2, 26] | Plant response rating, Morningglory [2, 27]
9: Plant response rating, Giant foxtail [3, 25] | Giant foxtail plant response rating [3, 26] | Plant response rating, Giant foxtail [3, 27]
5: Plant response rating, Giant foxtail [3, 24]
7: Plant response rating, Morningglory [2, 24] | Plant response rating, Morningglory [2, 25]
0: Plant response rating, Ducksalad (0 to 10 scale, 0 is no effect, 10 is complete control) [1, 20] | Ducksalad plant response rating (0 to 10 scale, 0 is no effect, 10 is complete control) [1, 21] | Ducksalad plant response rating [1, 22] | Ducksalad plant response rating [1, 23] | Morningglory plant response rating [2, 28] | Morningglory plant response rating [2, 29] | Plant response rating, Rice (0 to 10 scale, 0 is no effect, 10 is complete control) [4, 20] | Rice plant response rating (0 to 10 scale, 0 is no effect, 10 is complete control) [4, 21] | Rice plant response rating [4, 22] | Rice plant response rating [4, 23]
10: Plant response rating, Morningglory [2, 11] | Giant foxtail plant response rating [3, 28] | Giant foxtail plant response rating [3, 29] | Plant response rating, Giant foxtail [3, 11]

C=CC[Si](C)(C)Cn1c(=O)on(C(=O)N(c2ccc(F)cc2)C(C)C)c1=O [Compound 426]
7: Morningglory plant response rating [2, 36] | Giant foxtail plant response rating [3, 36]
6: Morningglory plant response rating [2, 35]
3: Giant foxtail plant response rating [3, 12]
10: Giant foxtail plant response rating [3, 34] | Giant foxtail plant response rating [3, 35]
0: Ducksalad plant response rating [1, 30] | Ducksalad plant response rating [1, 31] | Ducksalad plant response rating ([1]; Rate 62 g/ha, Postemergence (flood test species), scale of 0 to 10 where 0 is no effect and 10 is complete control) | Ducksalad plant response rating [1, 32] | Plant response rating, Morningglory [2, 28] | Plant response rating, Morningglory [2, 29] | Morningglory plant response rating [2, 34] | Rice plant response rating [4, 30] | Rice plant response rating [4, 31] | Rice plant response rating [4, 32]
9: Morningglory plant response rating [2, 33] | Morningglory plant response rating [2, 27] | Giant foxtail plant response rating [3, 33] | Giant foxtail plant response rating [3, 27] | Plant response rating, Giant foxtail [3, 28] | Plant response rating, Giant foxtail [3, 29]

CCc1ccccc1-n1c(=O)on(C(=O)N(c2ccc(F)cc2F)C(C)C)c1=O [Compound 45]
0: Ducksalad plant response rating [1, 24] | Ducksalad plant response rating [1, 37] | Ducksalad plant response rating [1, 38] | Ducksalad plant response rating [1, 39] | Morningglory plant response rating [2, 24] | Morningglory plant response rating [2, 40] | Plant response rating, Morningglory [2, 41] | Plant response rating, Morningglory [2, 42] | Plant response rating, Morningglory [2, 10] | Morningglory plant response rating [2, 43] | Morningglory plant response rating [2, 44] | Giant foxtail plant response rating [3, 24] | Giant foxtail plant response rating [3, 44] | Rice plant response rating [4, 24] | Rice plant response rating [4, 37] | Rice plant response rating [4, 38] | Rice plant response rating [4, 39]
3: Morningglory plant response rating [2, 45]
9: Giant foxtail plant response rating [3, 40] | Giant foxtail plant response rating [3, 45]
7: Plant response rating, Giant foxtail [3, 41]
10: Plant response rating, Giant foxtail [3, 42] | Plant response rating, Giant foxtail [3, 10] | Giant foxtail plant response rating [3, 43]
